Measured values: patent US5231107A, “Derivatives of the oxime of 1,2,5,6-tetrahydropyridine 3-carboxaldehyde, the process for their preparation, their use as medicaments and the compositions containing them” (priority 1987, dated 1993)
Where two headings read alike, the source gives them in different places.

Legend:
[1] = system: ileum isolated from guinea-pig; assay: Test of ileum isolated from guinea-pig; settings: Cavia porcellus, agonist activity, Tyrode solution, 37° C., read-out: pD2 (negative logarithm of the dose which produces 50% of the maximum effect) (converted)
Method: Pieces of ileum are removed from guinea-pigs killed by decapitation. The isolated ileum is placed in 10 cm^3 of Tyrode solution at 37° C. and aerated with a mixture of oxygen (95%) and carbon dioxide gas (5%). The contractions due to the products are registered by means of a detector connected to a polygraph. […].
The possible antagonist activity of the products is tested vis-a-vis acetylcholine.
The agonist activity is expressed in pD2 (negative logarithm of the dose which produces 50% of the maximum effect).
The antagonist activity is expressed in DE50 (dose reducing by 50% the maximum response induced by acetylcholine).

in vivo = assay: in vivo; parameters: species or system male mice (CD1 Charles Rivers); settings: oral route; male CD1 mice; method of Miller and Tainter
Method: The test is carried out on male mice (CD1 Charles Rivers) weighing 25 to 30 g, which have fasted for 6 hours. The product dissolved at 5% in methocel is administered by oral route by means of an oesophage probe.
Control animals receive only the excipient.
After treatment, the animals are placed separately in cages of which the base is covered with blotting paper, and they are put under observation for 30, 60, 120 and 180 minutes.
The sheets of absorbent paper are changed after each observation.
The consistency of the feces is evaluated according to the method of Randall and Baruth (Arch. Int. Pharmacodyn. 220, 94, 1976) according to the following scale of values.
1: feces slightly soft, with or without a damp halo,
2: feces slightly soft, with a well-defined circle of humidity,
3: feces soft with a large circle of humidity,
4: feces without consistency with a very large circle of humidity.
For each product, the dose is noted which causes diarrhoea in 50% of the animals according to the method of Miller and Tainter (Proc. Soc. Exp. Biol. Med., 57, 261, 1944).

Hypothermic activity = type: in vivo, male mice (CD1 Charles Rivers); settings: Mus musculus, read-out: Effective dose (-1° C.)
Method: The test is carried out on male mice (CD1 Charles Rivers) weighing 25-30 g, which have fasted for 6 hours.
The temperature of the body is noted by means of a thermocouple inserted about 1.5 cm in the rectum and connected to an electric temperature recorder.
The products are administered by oral or sub-cutaneous route and the temperatures are noted at the instant 0 and at 30 minutes, 1 hour, 2 hours and 2-and-a-half hours after treatment.
The degree of hypothermia is evaluated as the difference between the treated animals and the controls, and the dose necessary to reduce the body temperature by 1° C. is noted.

[2] = system: central cholinergic system; settings: in vivo; cited from earlier work
[3] = intravenous route; cited from earlier work

## COC(=O)C1=CCCN(C)C1 [Arecoline, arecoline, reference compound]
[1]
  EC50: 331 nM
In vivo
  DE50 (dose which causes diarrhoea in 50% of the animals): 35 mg/kg
Hypothermic activity; oral route (O.R.)
  ED (-1 C): 194 mg/kg
Hypothermic activity; sub-cutaneous route (SC.R)
  ED (-1 C): 3 mg/kg
[2]
  duration of action of arecoline: short duration of action
[3]
  effect on patients having a memory defect: positive effect
